A short description of experiment [1]: microbe, parasite or virus in culture. The conditions noted are these: Mycobacterium tuberculosis, 96 h, read-out: pIC50 (converted).
The nature of experiment [2]: microbe, parasite or virus in culture. The settings on record: Mycobacterium tuberculosis, 72 h, read-out: pIC50 (converted).

As to `CN(CCc1nc(-c2cccc(Cl)c2)no1)CCn1cccn1`, the IC50 in experiment [1] was 41.6 µM; in experiment [2], 4.75 µM.
In the same order, the values of `N#CCc1ccc(CN)cc1` are 135 µM and 182 µM.
Taken in the same sequence, the figures for `CN(C)S(=O)(=O)c1ccc(COC(=O)C2CC2)o1` were 338 µM and > 501 µM.
Taken in the same sequence, the figures for `CCS(=O)(=O)N1CCCCC1c1nc(C(C)C)no1` (stereo unspecified) were > 50.1 µM and > 50.1 µM.
For the compound `CCCSc1ccc(NC(=O)NCCN)cc1`, the IC50 is 233 µM in experiment [1] and 187 µM in experiment [2].
Taken in the same sequence, the figures for `NCc1nc(C(F)F)no1` were > 501 µM and 289 µM.
In the same order, the values of `C[C@@H](CO)Nc1ncc(Cl)cc1Br` are > 501 µM and 291 µM.
In the same order, the values of `CCc1noc(CSc2n[nH]c(-c3ccccn3)n2)n1` are 25.1 µM and > 50.1 µM.
Turning to `Cc1ccc(N2CCN(C)c3ncccc3C2)nn1`, the IC50 in experiment [1] and in experiment [2] was > 50.1 µM in each case.
Turning to `COC(=O)C(NC(=O)c1ccc(N(C)C)nc1)c1ccccc1` (stereo unspecified), the IC50 in experiment [1] was 10.2 µM; in experiment [2] it was 33.2 µM.
With `CN(Cc1ccc(N)nc1)c1ccc(C#N)cn1`, the IC50 in experiment [1] and in experiment [2] was > 501 µM in each case.
On to `Cc1csc(NC(=O)NC(CO)CC(C)C)n1` (stereo unspecified), for which the IC50 in experiment [1] is 289 µM; in experiment [2], 341 µM.
Taken in the same sequence, the figures for `CC(C)CCn1ccc(NC(=O)C2(O)CCC2)n1` were 331 µM and 308 µM.
In the same order, the values of `CNS(=O)(=O)c1ccc(C(=O)Nc2ccc(F)cc2)o1` are > 501 µM and > 501 µM.
Taken in the same sequence, the figures for `Cc1cc(C(=O)NCC(O)c2ccccc2Cl)no1` (stereo unspecified) were > 501 µM and 177 µM.
Turning to `CCC1CN(C(=O)c2ccc3ccccc3n2)CCO1` (stereo unspecified), the IC50 in experiment [1] is > 501 µM; in experiment [2], 97.4 µM.
In the same order, the values of `CC(C)c1cccc(S(=O)(=O)NCCCN)c1` are > 501 µM and 195 µM.
In the case of `COc1ccccc1C(C)NC(=O)Cn1cc(C)cn1` (stereo unspecified), the figures for the IC50 in experiment [1] and in experiment [2] were > 501 µM and 226 µM, respectively.
Taken in the same sequence, the figures for `Clc1ccc(OCCc2cc(C3CCN(c4ncccn4)C3)n[nH]2)cc1` (stereo unspecified) were 26.1 µM and 40 µM.
In the same order, the values of `CC(C)c1cccc(NC(=O)CN2CCC(O)CC2)c1` are 359 µM and 116 µM.
In the same order, the values of `COc1ccccc1C(O)CNc1cccc(C)n1` (stereo unspecified) are 136 µM and > 501 µM.
`N#Cc1ccc(N2CCC3(CC2)COCCN3Cc2cccnc2)cc1`: the IC50 in experiment [1] and in experiment [2] was > 50.1 µM throughout.
On to `CCc1cccc2c1OCCC2N` (stereo unspecified), for which the IC50 in experiment [1] and in experiment [2] was > 501 µM in each case.
As for `CC(C)CC(NC(N)=O)C(=O)Nc1cc(F)cc(F)c1` (stereo unspecified), the IC50 in experiment [1] is > 501 µM; in experiment [2], 239 µM.
Taken in the same sequence, the figures for `CCN(CCn1cccn1)C(=O)c1cc(C(C)C)no1` were > 501 µM and > 501 µM.
In the same order, the values of `CCc1nnc2n1CCN(C(C(=O)NC1CC1)c1ccccc1)C2` (stereo unspecified) are > 50.1 µM and > 50.1 µM.
In the same order, the values of `CCCS(=O)(=O)N(C)Cc1ccc(OCC)cn1` are 280 µM and 148 µM.
`CC1(C)CN(C(=O)c2cc(Br)c[nH]2)CCO1`: the IC50 in experiment [1] was 290 µM; in experiment [2], 136 µM.
For the compound `c1cn(C2CCNCC2)nn1`, the IC50 in experiment [1] is 409 µM; in experiment [2], 354 µM.
In the same order, the values of `CCOCCC(=O)N(C)Cc1cc(C(C)C)no1` are 372 µM and 169 µM.
In the same order, the values of `O=C(Nc1cccc(CO)n1)Nc1ccccc1Cl` are > 501 µM and 246 µM.
Taken in the same sequence, the figures for `O=C(NCC(=O)N1CCCC1)c1csc2ccccc12` were 71.2 µM and 43.9 µM.
For the compound `Cc1[nH]ncc1C(=O)NCCCSCC(C)C`, the figures for the IC50 in experiment [1] and in experiment [2] were > 501 µM and 102 µM, respectively.
As to `CNC(=O)CCSc1ccc2c(c1)OCCO2`, the IC50 in experiment [1] was 165 µM; in experiment [2], 143 µM.
Taken in the same sequence, the figures for `Cc1cccc(CC(=O)N2CCn3cnnc3C2)c1` were 187 µM and 170 µM.
Take `O=C(Nc1cccc(Cl)c1)C1CCCN1` (stereo unspecified): the IC50 in experiment [1] is > 501 µM; in experiment [2], 147 µM.
Taken in the same sequence, the figures for `N[C@@H]1CC[C@@H](NC(=O)c2cc3sccc3[nH]2)C1` were > 501 µM and 167 µM.
Taken in the same sequence, the figures for `COc1cc2c(cc1CNC(Cc1cccs1)c1nccs1)OCO2` (stereo unspecified) were 17.3 µM and > 50.1 µM.
In the same order, the values of `CCOC(=O)N1CCN(Cc2nc(C3CC3)no2)CC1` are 109 µM and 93.9 µM.
In the case of `COc1ccc(-c2noc(CN3CCN(c4cnccn4)CC3)n2)cc1`, the IC50 in experiment [1] is 33.8 µM; in experiment [2], 47 µM.
In the same order, the values of `NC(=O)c1ccsc1NC(=O)CCN1CCCC1` are 248 µM and 204 µM.
Regarding `CC(CNCC(F)(F)CO)c1ccccc1` (stereo unspecified), the IC50 in experiment [1] and in experiment [2] was > 501 µM each time.
Turning to `CCCc1noc(C(C)Nc2cccc(C(N)=O)c2)n1` (stereo unspecified), the IC50 in experiment [1] is 156 µM; in experiment [2], 56.4 µM.
Consider `COc1cc(C(=O)NC(C)CC#N)ccc1C` (stereo unspecified), for which the figures for the IC50 in experiment [1] and in experiment [2] were 184 µM and 185 µM, respectively.
On to `Cn1cc(Br)cc1C(=O)NCCCNc1ncccn1`, for which the IC50 is > 501 µM in experiment [1] and 292 µM in experiment [2].
In the same order, the values of `CN1CCCC(c2cccc(-c3cccc(C(F)(F)F)c3)n2)C1` (stereo unspecified) are 3.45 µM and 2.88 µM.
As to `NCCc1cccc2cc[nH]c12`, the IC50 in experiment [1] is 211 µM; in experiment [2], 177 µM.
For the compound `Cc1ccc(-n2nnnc2NCC2CCCO2)cc1` (stereo unspecified), the IC50 in experiment [1] is 119 µM; in experiment [2], 113 µM.
In the same order, the values of `O=C(Nc1nnc(-c2cccs2)s1)NC1CCCNC1` (stereo unspecified) are > 501 µM and 127 µM.
Take `O=C(NC1=NCCS1)c1sccc1C1CC1`: the figures for the IC50 in experiment [1] and in experiment [2] were 398 µM and 232 µM, respectively.
Taken in the same sequence, the figures for `CN(C)S(=O)(=O)N(CCO)Cc1ccc(Cl)c(Cl)c1` were 308 µM and 216 µM.
Taken in the same sequence, the figures for `Brc1cncc(NCc2ncc[nH]2)c1` were > 501 µM and 475 µM.
Taken in the same sequence, the figures for `Cc1cccc(NCC(=O)NC2CCCCC2)n1` were 148 µM and 152 µM.
Consider `COc1cccc([C@@H]2C[C@H]2N)c1`, for which the figures for the IC50 in experiment [1] and in experiment [2] were > 501 µM and 163 µM, respectively.
In the same order, the values of `COCCNC(=O)c1cc(-c2ccccc2F)no1` are 127 µM and 195 µM.
For the compound `Cc1ccc(NCc2ncc(C(C)(C)C)o2)c(Cl)c1`, the IC50 in experiment [1] was 9.14 µM; in experiment [2], 8.32 µM.
As to `CC(Oc1ccc(Cl)cc1)C(=O)N(C)C` (stereo unspecified), the IC50 in experiment [1] and in experiment [2] was > 501 µM throughout.
On to `CC(C)n1nccc1NC(=O)NCCc1nc2ccc(F)cc2n1C`, for which the IC50 in experiment [1] and in experiment [2] was > 50.1 µM in each case.
On to `O=C(Nc1cccnc1)[C@H]1COC[C@H]2CN(C3CCCC3)C[C@H]21`, for which the IC50 in experiment [1] and in experiment [2] was > 50.1 µM each time.
As for `Cc1nsc(C(=O)NCCCc2ccccc2)n1`, the results for the IC50 in experiment [1] and in experiment [2] were 47.1 µM and > 50.1 µM, respectively.
In the same order, the values of `COc1ccc2c(c1)CN(C(=O)C1CCCOC1)CC2` (stereo unspecified) are > 501 µM and > 501 µM.
In the same order, the values of `CN(C)C(=O)c1csc(N2CCCCC2)n1` are 58.7 µM and 46.6 µM.
Taken in the same sequence, the figures for `CC(NC(=O)CSc1nnnn1C1CC1)c1cccs1` (stereo unspecified) were > 501 µM and 433 µM.
On to `CC(C)c1ccoc1C(=O)N(C)c1cc(C#N)ccn1`, for which the IC50 is > 501 µM in experiment [1] and 140 µM in experiment [2].
Taken in the same sequence, the figures for `c1csc(CN2CC(c3nc(-c4cnccn4)no3)C2)c1` were > 50.1 µM and > 50.1 µM.
In the same order, the values of `Cn1cc(CC(=O)Nc2ccc(I)cn2)cn1` are > 501 µM and 283 µM.
Taken in the same sequence, the figures for `CN1CCOC(C(=O)Nc2ncc(Cl)s2)C1` (stereo unspecified) were 296 µM and 361 µM.
On to `COC(=O)CCCC(=O)N1CCCc2ccccc2C1`, for which the IC50 in experiment [1] was > 501 µM; in experiment [2], 180 µM.
`CN(Cc1ccco1)C(=O)c1cc(C2CC2)[nH]n1`: the IC50 was 59.3 µM in experiment [1] and 107 µM in experiment [2].
In the same order, the values of `CCCNc1nc(CS(=O)(=O)c2ccccc2)cs1` are > 50.1 µM and > 50.1 µM.
In the same order, the values of `Cc1cc(NC(C)CN2CCOCC2)ncc1Br` (stereo unspecified) are > 501 µM and 420 µM.
In the same order, the values of `CCNC(=O)NCCOC(=O)c1cccc2cc[nH]c12` are > 501 µM and > 501 µM.
In the case of `CCNCc1ccc2c(c1)OCO2`, the results for the IC50 in experiment [1] and in experiment [2] were > 501 µM and 280 µM, respectively.
Taken in the same sequence, the figures for `NCC1CCCN(c2ncccn2)C1` (stereo unspecified) were > 501 µM and 288 µM.
Taken in the same sequence, the figures for `COc1cccc(S(=O)(=O)CCN2CCC(O)CC2)c1` were > 501 µM and 397 µM.
Taken in the same sequence, the figures for `CCN(C(=O)CN1CCCC1Cc1ccccc1)c1ccccc1` (stereo unspecified) were > 50.1 µM and 44.2 µM.
Regarding `c1ccc(NCCNc2ccccn2)cc1`, the values for the IC50 in experiment [1] and in experiment [2] were 217 µM and 230 µM, respectively.
In the same order, the values of `N#Cc1ccccc1CN1CCCC1CO` (stereo unspecified) are 176 µM and 129 µM.
In the same order, the values of `C=C(C)COc1c(Cl)cc(C(N)=O)cc1OC` are 295 µM and 223 µM.
As to `COc1ccc(CN2CCCC(Nc3cccc(F)c3)C2)cc1O` (stereo unspecified), the IC50 in experiment [1] is 16.5 µM; in experiment [2], 11 µM.
Taken in the same sequence, the figures for `CC(C)(C)C(=O)CCN1CCCCC1` were 290 µM and 204 µM.
In the same order, the values of `O=C(NCCc1c[nH]c2ccc(F)cc12)C1(n2cnnn2)CCCCC1` are 28 µM and 46.3 µM.
In the same order, the values of `Cc1cccc(NCCNC(=O)c2ccccc2)n1` are > 501 µM and > 501 µM.
